Results taken from US12655116B2, “Substituted isophthalic acid diamides” (Bayer Aktiengesellschaft, priority 2020, dated 2026).

Columns and labels:
ABUTH [1] = assay: Pre-emergence herbicidal action against ABUTH; assay type: in vivo, Abutilon theophrasti; conditions: Abutilon theophrasti, 504 h
How it was run: (§1)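 Pre-emergence soil-surface spray of formulated compound (WP or EC; 600 to 800 l/ha; 0.2% wetting agent) over seeds sown in sandy loam. After 3 weeks under greenhouse conditions, damage is estimated visually in percent against untreated plants.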

ALOMY [2] = assay: Pre-emergence herbicidal action against ALOMY; assay type: in vivo, Alopecurus myosuroides; conditions: Alopecurus myosuroides, pre-emergence, 504 h; 320 g/ha; scored visually after 3 weeks, 100% = plants have died, 0% = like control plants
How it was run: as §1

AMARE [3] = assay: Pre-emergence herbicidal action against AMARE; assay type: in vivo, Amaranthus retroflexus; conditions: Amaranthus retroflexus, 504 h, 100% = plants have died, 0% = like control plants
How it was run: as §1

AVEFA [4] = assay: Pre-emergence herbicidal action against AVEFA; assay type: in vivo, Avena fatua; conditions: Avena fatua, 504 h, pre-emergence
How it was run: as §1

ECHCG [5] = assay: Pre-emergence herbicidal action against ECHCG; assay type: in vivo, Echinochloa crus-galli; conditions: Echinochloa crus-galli, 504 h
How it was run: as §1

HORMU [6] = assay: Pre-emergence herbicidal action against HORMU; assay type: in vivo, Hordeum murinum; conditions: Hordeum murinum, 504 h; 320 g/ha, pre-emergence
How it was run: as §1

MATIN [7] = assay: Pre-emergence herbicidal action against MATIN; assay type: in vivo, Matricaria inodora; conditions: Tripleurospermum inodorum, 504 h
How it was run: as §1

SETVI = assay: Pre-emergence herbicidal action against SETVI; assay type: in vivo, Setaria viridis; conditions: Setaria viridis, 504 h
How it was run: as §1

STEME [8] = assay: Pre-emergence herbicidal action against STEME; assay type: in vivo, Stellaria media; conditions: Stellaria media, 504 h
How it was run: as §1

VERPE [9] = assay: Pre-emergence herbicidal action against VERPE; assay type: in vivo, Veronica persica; conditions: Veronica persica, 504 h, dosage 320 g/ha
How it was run: as §1

VIOTR [10] = assay: Pre-emergence herbicidal action against VIOTR; assay type: in vivo, Viola tricolor; conditions: Viola tricolor, 504 h
How it was run: as §1

DIGSA [11] = assay: Pre-emergence herbicidal action against DIGSA; assay type: in vivo, Digitaria sanguinalis; conditions: Digitaria sanguinalis, 504 h
How it was run: as §1

ABUTH [12] = assay: Post-emergence herbicidal action against ABUTH; assay type: in vivo, Abutilon theophrasti; conditions: Abutilon theophrasti, 504 h, visual assessment about 3 weeks after treatment vs untreated controls
How it was run: (§2)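 Greenhouse plants in sandy loam were sprayed at the one-leaf stage, 2 to 3 weeks after sowing, with WP or EC formulations as aqueous suspension or emulsion (600 to 800 l/ha water, 0.2% wetting agent). Visual damage was scored about 3 weeks later versus untreated controls, 0% = like control, 100% = dead.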

ALOMY [13] = assay: Post-emergence herbicidal action against ALOMY; assay type: in vivo, Alopecurus myosuroides; conditions: Alopecurus myosuroides, 504 h, visual assessment about 3 weeks after treatment vs untreated controls
How it was run: as §2

AMARE [14] = assay: Post-emergence herbicidal action against AMARE; assay type: in vivo, Amaranthus retroflexus; conditions: Amaranthus retroflexus, 504 h, 80 g/ha, visual assessment about 3 weeks after treatment, 100% = plants have died, 0% = like control plants
How it was run: as §2

AVEFA [15] = assay: Post-emergence herbicidal action against AVEFA; assay type: in vivo, Avena fatua; conditions: Avena fatua, 504 h, 80 g/ha, visual assessment about 3 weeks after treatment, 100% = plants have died, 0% = like control plants
How it was run: as §2

ECHCG [16] = assay: Post-emergence herbicidal action against ECHCG; assay type: in vivo, Echinochloa crus-galli; conditions: Echinochloa crus-galli, 504 h
How it was run: as §2

HORMU [17] = assay: Post-emergence herbicidal action against HORMU; assay type: in vivo, Hordeum murinum; conditions: Hordeum murinum, 504 h
Method: Seeds of monocotyledonous and dicotyledonous weed and crop plants are laid out in sandy loam soil in wood-fiber pots, covered with soil and cultivated in a greenhouse under good growth conditions. 2 to 3 weeks after sowing, the test plants are treated at the one-leaf stage. The compounds of the invention, formulated in the form of wettable powders (WP) or as emulsion concentrates (EC), are then sprayed onto the green parts of the plants in the form of an aqueous suspension or emulsion at a water application rate equivalent to 600 to 800 l/ha, with addition of 0.2% wetting agent. After the test plants have been left to stand in the greenhouse under optimal growth conditions for about 3 weeks, the action of the preparations is assessed visually in comparison to untreated controls (herbicidal action in percent (%): 100% activity=the plants have died, 0% activity=like control plants). […] The tables below illustrate, in an illustrative manner, the post-emergence herbicidal action of the compounds of the invention, the herbicidal activity being stated in percent.

MATIN [18] = assay: Post-emergence herbicidal action against MATIN; assay type: in vivo, Matricaria inodora; conditions: Tripleurospermum inodorum, 504 h
How it was run: as §2

PHBPU = assay: Post-emergence herbicidal action against PHBPU; assay type: in vivo, Pharbitis purpurea; conditions: Ipomoea purpurea, 504 h, dosage 80 g/ha
How it was run: as §2

STEME [19] = assay: Post-emergence herbicidal action against STEME; assay type: in vivo, Stellaria media; conditions: Stellaria media, 504 h
How it was run: as §2

VERPE [20] = assay: Post-emergence herbicidal action against VERPE; assay type: in vivo, Veronica persica; conditions: Veronica persica, 504 h, 80 g/ha
How it was run: as §2

VIOTR [21] = assay: Post-emergence herbicidal action against VIOTR; assay type: in vivo, Viola tricolor; conditions: Viola tricolor, 504 h, 80 g/ha
How it was run: as §2

DIGSA [22] = assay: Post-emergence herbicidal action against DIGSA; assay type: in vivo, Digitaria sanguinalis; conditions: Digitaria sanguinalis, 504 h
How it was run: as §2

CCNC(=O)c1c(C(F)(F)F)ccc(C(=O)Nc2nnc(C)o2)c1Cl [Example 6-117] showed a pest or weed control at 80 g/ha (ABUTH [1]; 80 g/ha, scored visually after 3 weeks vs untreated controls (100% = plants have died, 0% = like control plants)) of 100%, a pest or weed control at 320 g/ha (ABUTH [1]; Dosage: 320 g/ha, scored visually after 3 weeks, 100% = plants have died, 0% = like control plants) of 100% and a pest or weed control at 320 g/ha (ALOMY [2]) of 90%. For the same compound, the pest or weed control at 80 g/ha (AMARE [3]; 80 g/ha, scored visually after 3 weeks vs untreated controls) was 100%, the pest or weed control at 320 g/ha (AMARE [3]; 320 g/ha, scored visually after 3 weeks) was 100% and the pest or weed control at 80 g/ha (AVEFA [4]; 80 g/ha) was 100%. It also gave a pest or weed control at 320 g/ha (AVEFA [4]; 320 g/ha, scored visually after 3 weeks, 100% = plants have died, 0% = like control plants) of 100%, a pest or weed control at 80 g/ha (ECHCG [5]; 80 g/ha) of 90% and a pest or weed control at 320 g/ha (ECHCG [5]; 320 g/ha) of 100%. The pest or weed control at 320 g/ha (HORMU [6]) was 100%, the pest or weed control at 80 g/ha (MATIN [7]; dosage 80 g/ha) was 100% and the pest or weed control at 320 g/ha (MATIN [7]; dosage 320 g/ha) was 100%. The pest or weed control at 80 g/ha (SETVI; dosage 80 g/ha) was 100%, the pest or weed control at 320 g/ha (SETVI; dosage 320 g/ha) was 100% and the pest or weed control at 80 g/ha (STEME [8]; dosage 80 g/ha) was 100%. The pest or weed control at 320 g/ha (STEME [8]; dosage 320 g/ha) was 100%, the pest or weed control at 320 g/ha (VERPE [9]) was 90% and the pest or weed control at 80 g/ha (VIOTR [10]; dosage 80 g/ha) was 80%. It also gave a pest or weed control at 320 g/ha (VIOTR [10]; dosage 320 g/ha) of 100%, a pest or weed control at 80 g/ha (DIGSA [11]; dosage 80 g/ha) of 100% and a pest or weed control at 320 g/ha (DIGSA [11]; dosage 320 g/ha) of 100%. The pest or weed control at 20 g/ha (ABUTH [12]; dosage 20 g/ha) was 80%, the pest or weed control at 80 g/ha (ABUTH [12]; dosage 80 g/ha) was 80% and the pest or weed control at 20 g/ha (ALOMY [13]; dosage 20 g/ha) was 80%. It also gave a pest or weed control at 80 g/ha (ALOMY [13]; dosage 80 g/ha) of 90%, a pest or weed control at 80 g/ha (AMARE [14]) of 80% and a pest or weed control at 80 g/ha (AVEFA [15]) of 90%. It also gave a pest or weed control at 20 g/ha (ECHCG [16]; dosage 20 g/ha) of 80%, a pest or weed control at 80 g/ha (ECHCG [16]; dosage 80 g/ha) of 80% and a pest or weed control at 20 g/ha (HORMU [17]; dosage 20 g/ha) of 80%. It also gave a pest or weed control at 80 g/ha (HORMU [17]; dosage 80 g/ha) of 90%, a pest or weed control at 20 g/ha (MATIN [18]; dosage 20 g/ha) of 90% and a pest or weed control at 80 g/ha (MATIN [18]; dosage 80 g/ha) of 90%. It also gave a pest or weed control at 80 g/ha (PHBPU) of 80%, a pest or weed control at 20 g/ha (STEME [19]; 20 g/ha) of 90% and a pest or weed control at 80 g/ha (STEME [19]; 80 g/ha) of 90%. It also gave a pest or weed control at 80 g/ha (VERPE [20]) of 80%, a pest or weed control at 80 g/ha (VIOTR [21]) of 80% and a pest or weed control at 20 g/ha (DIGSA [22]; 20 g/ha) of 80%. It also gave a pest or weed control at 80 g/ha (DIGSA [22]; 80 g/ha) of 90%.
